# Source: ChEMBL document CHEMBL1201862, “PubChem BioAssay data set” (2004)
# Calls of active or inactive are those of the source.
# Tests used:
# [1] = target: 1-acylglycerol-3-phosphate O-acyltransferase ABHD5/Perilipin-5 (Homo sapiens, UniProt Q00G26+Q8WTS1); experiment: Luminescence-based biochemical high throughput dose response assay for inhibitors of the interaction of the lipase co-activator protein, abhydrolase domain containing 5 (ABHD5) with perilipin-5 (MLDP; PLIN5) (2K validation set). [Related pubchem assays (depositor defined):AID493035, AID493241]
# Chain of 1-acylglycerol-3-phosphate O-acyltransferase ABHD5/Perilipin-5 (Q00G26 whole entry, the tested form may be a part): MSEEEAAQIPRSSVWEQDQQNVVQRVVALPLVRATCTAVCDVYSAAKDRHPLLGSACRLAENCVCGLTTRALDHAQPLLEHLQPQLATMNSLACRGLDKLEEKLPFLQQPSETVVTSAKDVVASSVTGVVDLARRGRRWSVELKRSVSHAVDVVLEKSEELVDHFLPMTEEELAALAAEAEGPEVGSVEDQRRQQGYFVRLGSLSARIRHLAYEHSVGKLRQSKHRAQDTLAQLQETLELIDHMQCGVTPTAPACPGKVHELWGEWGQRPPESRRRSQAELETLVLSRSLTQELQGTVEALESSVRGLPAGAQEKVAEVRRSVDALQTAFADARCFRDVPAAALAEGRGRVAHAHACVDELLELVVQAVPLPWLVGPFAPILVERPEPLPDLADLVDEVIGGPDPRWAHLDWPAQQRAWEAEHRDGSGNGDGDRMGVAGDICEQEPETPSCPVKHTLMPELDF
# Chain of 1-acylglycerol-3-phosphate O-acyltransferase ABHD5/Perilipin-5 (Q8WTS1 whole entry, the tested form may be a part): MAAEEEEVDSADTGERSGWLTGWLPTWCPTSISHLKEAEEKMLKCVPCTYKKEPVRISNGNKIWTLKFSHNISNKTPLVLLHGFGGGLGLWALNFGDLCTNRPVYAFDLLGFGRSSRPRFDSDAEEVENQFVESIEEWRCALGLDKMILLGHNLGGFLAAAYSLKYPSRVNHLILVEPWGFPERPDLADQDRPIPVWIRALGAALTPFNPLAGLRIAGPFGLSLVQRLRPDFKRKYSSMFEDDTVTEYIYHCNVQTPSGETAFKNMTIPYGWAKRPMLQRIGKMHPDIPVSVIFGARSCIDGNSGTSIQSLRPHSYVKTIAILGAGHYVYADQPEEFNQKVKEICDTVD
# Perilipin-1/ABHD5 = Perilipin-1/ABHD5 (Homo sapiens, UniProt O60240+Q8WTS1); experiment: Luminescence-based biochemical high throughput dose response assay for inhibitors of the interaction of the lipase co-activator protein, abhydrolase domain containing 5 (ABHD5) with perilipin-1 (PLIN1) (2K validation set). [Related pubchem assays (depositor defined):AID493027, AID493057]
# Chain of Perilipin-1/ABHD5 (Q8WTS1 whole entry, the tested form may be a part): as above
# Chain of Perilipin-1/ABHD5 (O60240 whole entry, the tested form may be a part): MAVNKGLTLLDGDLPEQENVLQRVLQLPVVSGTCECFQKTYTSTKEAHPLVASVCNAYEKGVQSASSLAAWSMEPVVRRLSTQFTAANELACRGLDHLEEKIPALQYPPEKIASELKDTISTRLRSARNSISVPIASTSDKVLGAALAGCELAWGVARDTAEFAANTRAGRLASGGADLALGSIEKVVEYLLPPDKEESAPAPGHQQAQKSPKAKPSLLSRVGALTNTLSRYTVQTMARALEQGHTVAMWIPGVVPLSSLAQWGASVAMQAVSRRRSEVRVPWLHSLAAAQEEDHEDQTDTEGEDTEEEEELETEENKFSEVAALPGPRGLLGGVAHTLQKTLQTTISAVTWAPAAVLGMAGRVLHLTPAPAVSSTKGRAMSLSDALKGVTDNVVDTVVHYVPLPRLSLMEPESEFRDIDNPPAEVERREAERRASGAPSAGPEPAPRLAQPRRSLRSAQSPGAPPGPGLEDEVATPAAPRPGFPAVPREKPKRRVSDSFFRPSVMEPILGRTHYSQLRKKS
# Caspase-3 = target: T1, Caspase-3 (Homo sapiens, UniProt P42574); experiment: procaspase-3 activators, dose response, biochemical, absorbance (AID 489014)
# T1 sequence (P42574 whole entry): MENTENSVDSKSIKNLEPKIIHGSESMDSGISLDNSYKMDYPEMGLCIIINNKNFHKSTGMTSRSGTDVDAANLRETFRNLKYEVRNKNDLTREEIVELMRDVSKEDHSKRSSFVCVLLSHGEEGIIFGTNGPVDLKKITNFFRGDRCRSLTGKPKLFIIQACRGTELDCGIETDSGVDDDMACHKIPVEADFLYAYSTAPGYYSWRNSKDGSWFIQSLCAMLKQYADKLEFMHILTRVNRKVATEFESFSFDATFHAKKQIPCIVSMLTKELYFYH
# Caspase-7 = target: T2, Caspase-7 (Homo sapiens, UniProt P55210); experiment: procaspase-7 activators, dose response, counter-screen for procaspase-3 activator project, biochemical, absorbance (AID 489013)
# T2 sequence (P55210 whole entry): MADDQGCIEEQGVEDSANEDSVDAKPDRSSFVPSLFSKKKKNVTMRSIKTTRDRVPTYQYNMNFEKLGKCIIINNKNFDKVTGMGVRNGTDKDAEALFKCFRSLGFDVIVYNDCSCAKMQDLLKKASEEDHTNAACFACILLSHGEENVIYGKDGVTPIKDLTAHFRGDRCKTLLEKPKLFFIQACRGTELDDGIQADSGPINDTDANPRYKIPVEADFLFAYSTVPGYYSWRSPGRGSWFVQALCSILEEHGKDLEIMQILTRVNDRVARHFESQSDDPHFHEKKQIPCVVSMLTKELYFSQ
# [2] = target: T3, Endoribonuclease toxin MazF (Escherichia coli K-12, UniProt P0AE70); experiment: MazF toxin RNase activators, dose response, biochemical, fluorescence, single-stranded RNA substrate, uHTS hits (AID 588481); format: functional
# T3 sequence (P0AE70 whole entry): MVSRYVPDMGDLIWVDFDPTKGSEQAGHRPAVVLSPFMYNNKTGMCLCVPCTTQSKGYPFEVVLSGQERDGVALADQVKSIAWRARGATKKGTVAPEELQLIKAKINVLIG
# [3] = target: T3, Endoribonuclease toxin MazF; experiment: fluorescent RNA oligo signal without MazF, dose response, counter-screen for MazEF activator project, biochemical, fluorescence, single-stranded RNase substrate (AID 588502); format: functional
# Beta-galactosidase = Beta-galactosidase (Escherichia coli, UniProt Q8VNN2); experiment: beta-galactosidase enzyme inhibitors and activators, dose response, artefact control for CCR6 antagonist project, biochemical, E. coli enzyme, set 3 (AID 504712); format: functional
# Chain of Beta-galactosidase (Q8VNN2 whole entry): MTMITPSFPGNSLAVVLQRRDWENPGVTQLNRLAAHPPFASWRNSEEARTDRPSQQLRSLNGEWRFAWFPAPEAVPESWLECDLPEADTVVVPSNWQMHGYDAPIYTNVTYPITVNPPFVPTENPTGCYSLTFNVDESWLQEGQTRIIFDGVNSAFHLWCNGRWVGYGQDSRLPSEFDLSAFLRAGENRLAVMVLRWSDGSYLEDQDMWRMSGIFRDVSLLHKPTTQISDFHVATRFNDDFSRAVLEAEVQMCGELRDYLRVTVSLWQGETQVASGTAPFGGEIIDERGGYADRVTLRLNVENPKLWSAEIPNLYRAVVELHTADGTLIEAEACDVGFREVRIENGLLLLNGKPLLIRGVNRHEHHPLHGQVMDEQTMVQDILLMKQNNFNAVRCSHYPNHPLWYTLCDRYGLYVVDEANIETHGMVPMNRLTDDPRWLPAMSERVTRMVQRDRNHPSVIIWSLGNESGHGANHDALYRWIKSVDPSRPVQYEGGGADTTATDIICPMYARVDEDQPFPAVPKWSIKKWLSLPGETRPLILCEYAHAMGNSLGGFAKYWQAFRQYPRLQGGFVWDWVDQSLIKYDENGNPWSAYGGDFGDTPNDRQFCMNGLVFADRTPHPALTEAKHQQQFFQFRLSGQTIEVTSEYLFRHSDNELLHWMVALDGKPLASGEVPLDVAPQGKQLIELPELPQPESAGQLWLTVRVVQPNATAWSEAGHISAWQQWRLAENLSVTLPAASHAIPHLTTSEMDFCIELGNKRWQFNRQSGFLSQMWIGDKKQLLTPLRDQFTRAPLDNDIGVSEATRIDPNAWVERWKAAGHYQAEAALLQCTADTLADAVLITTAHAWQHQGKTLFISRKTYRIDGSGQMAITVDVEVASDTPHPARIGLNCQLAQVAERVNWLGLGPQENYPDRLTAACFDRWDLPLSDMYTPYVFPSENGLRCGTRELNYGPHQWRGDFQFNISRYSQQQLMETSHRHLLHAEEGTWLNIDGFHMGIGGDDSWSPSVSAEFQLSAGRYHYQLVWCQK
# HEK293 [4] = experiment: NOD1 signaling inhibitors, primary screen, cell-based, luminescence, uHTS (AID 1578); format: functional; details: Homo sapiens
# [5] = tested on: Streptococcus sp. 'group A'; experiment: growth inhibition of control SK(-) GAS strain, dose response, counter-screen for streptokinase expression inhibitor project, luminescence, kanamycin, BacTiterGlo, confirmation (AID 1900); format: functional, organism-based
# HEK293 [6] = experiment: cells; format: functional, cell-based; details: Homo sapiens
# Streptokinase A = target: T4, Streptokinase A (Streptococcus pyogenes serotype M1, UniProt P10520); experiment: S. pyogenes streptokinase expression inhibitors, potency, dose response, plasminogen activation absorbance, OD405 (AID 1914); format: functional, Streptococcus pyogenes M1 GAS;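 note: secreted streptokinase activity via plasminogen activation per viability signal from cell pellet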
# T4 sequence (P10520 whole entry): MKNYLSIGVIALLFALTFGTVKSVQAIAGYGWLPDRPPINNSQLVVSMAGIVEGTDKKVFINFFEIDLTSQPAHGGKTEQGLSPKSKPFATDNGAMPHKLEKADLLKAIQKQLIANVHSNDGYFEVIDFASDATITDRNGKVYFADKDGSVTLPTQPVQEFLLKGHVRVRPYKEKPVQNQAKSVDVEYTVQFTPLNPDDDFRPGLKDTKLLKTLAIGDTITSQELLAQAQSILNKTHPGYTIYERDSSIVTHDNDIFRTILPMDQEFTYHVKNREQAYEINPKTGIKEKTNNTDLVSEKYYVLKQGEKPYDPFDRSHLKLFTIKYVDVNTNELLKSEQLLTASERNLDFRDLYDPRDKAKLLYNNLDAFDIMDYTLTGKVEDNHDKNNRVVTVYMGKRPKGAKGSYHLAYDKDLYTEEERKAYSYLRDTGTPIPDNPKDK
# HEK293 [7] = experiment: cells; format: functional, cell-based; details: Homo sapiens; remark: listed apart in the source
# [8] = target: T5, Nucleotide-binding oligomerization domain-containing protein 2 (Homo sapiens, UniProt Q9HC29); experiment: NOD2 signaling inhibitors, cell-based, luminescence, uHTS, HEK293 (AID 1566); format: functional
# T5 sequence (Q9HC29 whole entry, the tested form may be a part): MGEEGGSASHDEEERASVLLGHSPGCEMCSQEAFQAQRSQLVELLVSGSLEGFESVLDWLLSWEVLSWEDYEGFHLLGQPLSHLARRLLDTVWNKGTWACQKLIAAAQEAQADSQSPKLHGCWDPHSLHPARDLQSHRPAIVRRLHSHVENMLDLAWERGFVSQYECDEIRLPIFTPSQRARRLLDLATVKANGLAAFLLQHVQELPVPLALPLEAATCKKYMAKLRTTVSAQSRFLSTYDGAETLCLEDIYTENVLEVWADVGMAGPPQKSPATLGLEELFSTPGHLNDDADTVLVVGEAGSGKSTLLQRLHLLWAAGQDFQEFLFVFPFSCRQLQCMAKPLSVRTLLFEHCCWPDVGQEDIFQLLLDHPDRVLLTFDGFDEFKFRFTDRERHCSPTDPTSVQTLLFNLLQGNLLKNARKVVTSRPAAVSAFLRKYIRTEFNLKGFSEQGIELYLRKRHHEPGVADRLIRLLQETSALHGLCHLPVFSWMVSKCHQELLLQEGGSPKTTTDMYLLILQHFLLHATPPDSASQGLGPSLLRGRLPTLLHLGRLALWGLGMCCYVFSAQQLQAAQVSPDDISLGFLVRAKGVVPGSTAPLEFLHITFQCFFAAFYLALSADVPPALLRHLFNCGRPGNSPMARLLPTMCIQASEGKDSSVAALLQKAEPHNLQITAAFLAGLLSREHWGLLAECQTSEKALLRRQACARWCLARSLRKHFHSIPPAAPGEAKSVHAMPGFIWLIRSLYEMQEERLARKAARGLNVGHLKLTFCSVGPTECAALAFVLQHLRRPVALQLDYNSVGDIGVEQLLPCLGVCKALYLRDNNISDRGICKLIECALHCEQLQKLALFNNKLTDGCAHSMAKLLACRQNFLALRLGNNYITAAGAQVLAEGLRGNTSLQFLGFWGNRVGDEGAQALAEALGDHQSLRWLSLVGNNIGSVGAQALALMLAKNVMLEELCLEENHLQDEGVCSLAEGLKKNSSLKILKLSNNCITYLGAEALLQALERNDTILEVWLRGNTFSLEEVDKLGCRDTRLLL
# HEK293 [9] = experiment: NOD2 signaling inhibitors in MDP-stimulated cells, cell-based, uHTS, luminescence (AID 2001); format: functional; details: Homo sapiens
# HEK293 [10] = experiment: cells; format: functional, cell-based; details: Homo sapiens; remark: listed apart in the source
# Streptococcus = experiment: Group A Streptococcus viability loss, dose response, counter-screen for streptokinase expression inhibitor project, luminescence, BacTiterGlo (AID 1915); format: functional, organism-based;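 note: potency for reduction of bacterial viability or growth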
# [11] = target: T5, Nucleotide-binding oligomerization domain-containing protein 2; experiment: NOD2 inhibitors, SAR follow-up, set 2 (AID 2475); format: functional
# Tumor necrosis factor = Tumor necrosis factor (Homo sapiens, UniProt P01375); experiment: TNFa-triggered NF-kB activation inhibitors, SAR follow-up, cell-based, revised (AID 2337); format: functional
# Chain of Tumor necrosis factor (P01375 whole entry): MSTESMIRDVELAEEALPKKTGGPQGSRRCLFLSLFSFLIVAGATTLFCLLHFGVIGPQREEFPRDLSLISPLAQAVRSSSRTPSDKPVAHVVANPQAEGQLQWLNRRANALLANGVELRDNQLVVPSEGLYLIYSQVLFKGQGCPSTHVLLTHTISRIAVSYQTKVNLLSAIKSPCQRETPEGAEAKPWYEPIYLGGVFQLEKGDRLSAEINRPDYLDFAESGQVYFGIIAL
# [12] = THP-1 cell cytotoxicity, dose response, cytotoxicity control for non-replicating M. tuberculosis project (AID 489025); format: functional
# HEK293 [13] = experiment: SAR analysis of compounds that are cytotoxic to HEK293 - Set 2. [Related pubchem assays (depositor defined):AID1575, AID1578, AID1849, AID2001, AID2333, AID2334, AID2335, AID2337, AID2800]; format: functional, cell-based; details: Homo sapiens
# [14] = target: T6, Nucleotide-binding oligomerization domain-containing protein 1 (Homo sapiens, UniProt Q9Y239); experiment: NOD1 signaling inhibitors, SAR follow-up, revised (AID 2333); format: functional
# T6 sequence (Q9Y239 whole entry): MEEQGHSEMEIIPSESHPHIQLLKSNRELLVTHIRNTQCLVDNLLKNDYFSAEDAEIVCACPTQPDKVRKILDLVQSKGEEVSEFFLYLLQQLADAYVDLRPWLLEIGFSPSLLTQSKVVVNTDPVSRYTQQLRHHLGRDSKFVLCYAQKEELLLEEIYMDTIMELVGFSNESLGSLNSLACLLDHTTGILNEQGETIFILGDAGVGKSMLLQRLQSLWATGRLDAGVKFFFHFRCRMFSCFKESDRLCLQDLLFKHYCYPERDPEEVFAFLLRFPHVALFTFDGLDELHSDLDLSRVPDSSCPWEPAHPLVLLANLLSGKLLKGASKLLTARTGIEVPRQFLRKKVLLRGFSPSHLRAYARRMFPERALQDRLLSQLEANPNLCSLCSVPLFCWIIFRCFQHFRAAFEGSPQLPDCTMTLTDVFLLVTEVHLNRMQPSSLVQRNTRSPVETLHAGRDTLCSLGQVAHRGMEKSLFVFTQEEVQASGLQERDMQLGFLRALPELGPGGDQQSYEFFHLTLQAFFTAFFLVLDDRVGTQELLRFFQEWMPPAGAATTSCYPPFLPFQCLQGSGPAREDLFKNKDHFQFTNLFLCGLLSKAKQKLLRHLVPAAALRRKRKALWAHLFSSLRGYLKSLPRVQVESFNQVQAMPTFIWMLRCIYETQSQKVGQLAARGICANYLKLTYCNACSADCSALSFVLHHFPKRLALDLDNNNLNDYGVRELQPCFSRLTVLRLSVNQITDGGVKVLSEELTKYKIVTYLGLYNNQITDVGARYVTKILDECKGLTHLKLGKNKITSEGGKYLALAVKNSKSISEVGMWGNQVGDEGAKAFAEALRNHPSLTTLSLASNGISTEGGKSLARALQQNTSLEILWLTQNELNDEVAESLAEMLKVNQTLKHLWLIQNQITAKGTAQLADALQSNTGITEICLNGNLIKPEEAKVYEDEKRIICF
# [15] = HepG2 cell cytotoxicity, dose response, cytotoxicity control for non-replicating M. tuberculosis project (AID 489018); format: functional; details: Mycobacterium tuberculosis
# [16] = Vero E6 cell cytotoxicity, dose response, cytotoxicity control for non-replicating M. tuberculosis project, secondary assay (AID 492998); format: functional, VeroE6; details: Vero C1008
# [17] = target: T5, Nucleotide-binding oligomerization domain-containing protein 2; experiment: PubChem AID 2334; format: functional
# cells = format: functional
# HEK293 [18] = experiment: cells; details: Homo sapiens
# Coagulation factor XII = target: T7, Coagulation factor XII (Homo sapiens, UniProt P00748); experiment: Factor XIIa Dose Response Confirmation from Single Well HTS. [Related pubchem assays (depositor defined):AID701]; format: functional
# T7 sequence (P00748 whole entry): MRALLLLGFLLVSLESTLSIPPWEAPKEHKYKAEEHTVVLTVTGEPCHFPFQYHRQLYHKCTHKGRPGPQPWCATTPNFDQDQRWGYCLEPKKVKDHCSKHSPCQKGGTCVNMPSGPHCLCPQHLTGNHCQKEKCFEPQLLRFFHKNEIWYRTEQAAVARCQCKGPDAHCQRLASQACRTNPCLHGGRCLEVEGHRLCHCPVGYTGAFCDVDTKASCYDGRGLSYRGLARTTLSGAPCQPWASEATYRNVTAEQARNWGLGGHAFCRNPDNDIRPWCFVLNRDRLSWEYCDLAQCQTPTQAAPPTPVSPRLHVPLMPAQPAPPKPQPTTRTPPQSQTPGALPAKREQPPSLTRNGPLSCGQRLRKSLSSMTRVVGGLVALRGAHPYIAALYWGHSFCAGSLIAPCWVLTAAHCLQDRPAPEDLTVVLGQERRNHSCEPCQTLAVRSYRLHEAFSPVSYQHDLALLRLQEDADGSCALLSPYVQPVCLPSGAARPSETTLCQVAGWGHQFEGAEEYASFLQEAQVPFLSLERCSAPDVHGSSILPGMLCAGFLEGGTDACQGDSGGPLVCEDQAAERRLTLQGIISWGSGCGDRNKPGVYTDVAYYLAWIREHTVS
# [19] = target: T8, G-protein coupled receptor 55 (Homo sapiens, UniProt Q9Y2T6); experiment: GPR55 antagonists blocking LPI-driven arrestin recruitment, primary screen, imaging, U2OS, beta-arrestin-GFP, LPI agonist (AID 2013); format: functional;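 note: antagonist potency measured as reduced agonist-driven arrestin aggregation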
# T8 sequence (Q9Y2T6 whole entry): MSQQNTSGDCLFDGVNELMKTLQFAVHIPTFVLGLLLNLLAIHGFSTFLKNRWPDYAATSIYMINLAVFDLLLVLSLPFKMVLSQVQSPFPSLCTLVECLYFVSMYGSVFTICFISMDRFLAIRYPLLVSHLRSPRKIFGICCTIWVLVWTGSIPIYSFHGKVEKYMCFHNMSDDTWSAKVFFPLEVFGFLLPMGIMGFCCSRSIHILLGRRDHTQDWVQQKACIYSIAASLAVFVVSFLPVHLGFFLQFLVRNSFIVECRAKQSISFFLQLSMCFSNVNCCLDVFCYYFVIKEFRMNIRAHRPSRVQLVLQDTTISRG
# T-cell = experiment: inhibitors of CD8+ T cell–vesicle binding, dose response, mouse 2C CD8+ T cells, flow cytometry (AID 485284); format: functional
# [20] = target: T9, G-protein coupled receptor 35 (Homo sapiens, UniProt Q9HC97); experiment: GPR35 antagonists blocking zaprinast-driven arrestin recruitment, primary screen, imaging, U2OS, beta-arrestin-GFP, zaprinast agonist (AID 2058); format: functional;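 note: antagonist potency meaning inhibition of agonist-induced arrestin redistribution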
# T9 sequence (Q9HC97 whole entry): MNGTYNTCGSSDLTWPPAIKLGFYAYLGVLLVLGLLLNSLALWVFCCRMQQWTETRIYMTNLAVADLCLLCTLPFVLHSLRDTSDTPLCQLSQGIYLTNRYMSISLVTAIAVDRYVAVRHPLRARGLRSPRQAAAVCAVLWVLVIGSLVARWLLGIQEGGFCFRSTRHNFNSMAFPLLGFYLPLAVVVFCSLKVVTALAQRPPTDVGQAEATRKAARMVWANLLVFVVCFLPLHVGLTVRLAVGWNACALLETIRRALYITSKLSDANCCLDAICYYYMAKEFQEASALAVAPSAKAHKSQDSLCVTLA
# [21] = target: T9, G-protein coupled receptor 35; experiment: SAR analysis of Antagonists of the GPR35 Receptor using an Image-Based Assay - Set 5. [Related pubchem assays (depositor defined):AID2058, AID2079]; format: functional
# [22] = target: T9, G-protein coupled receptor 35; experiment: SAR Analysis for the identification of Selective Antagonists of ERK1/2 Activity in GPR35-Overexpressing U2OS Cells - Set 2. [Related pubchem assays (depositor defined):AID2058, AID2079]; format: functional, cell-based
# [23] = target: T8, G-protein coupled receptor 55; experiment: SAR Analysis of Selective Antagonists of GPR55 using an Image-Based Assay - Set 3. [Related pubchem assays (depositor defined):AID2058, AID2079]; format: functional
smiles,measurement,setting,value
O=C(/C=C/c1ccc2c(c1)OCO2)c1ccccn1,IC50,[1],6.96 µM (active)
same,IC50,Perilipin-1/ABHD5,6.85 µM (active)
COc1ccccc1Nc1nc2c(C)cccc2cc1C#N,EC50,Caspase-3,3.54 µM (active)
same,EC50,Caspase-7,9.49 µM (active)
same,EC50,[2],> 99 µM (inactive)
same,EC50,[3],7.39 µM (active)
O=C(NC(=S)N1CCN(c2ccc(C(F)(F)F)cc2[N+](=O)[O-])CC1)c1cccs1,IC50,Beta-galactosidase,> 66.6 µM (inactive)
CCC(=O)Nc1nc2ccccc2n1Cc1ccccc1Cl,EC50,HEK293 [4],> 20 µM (inactive)
same,EC50,[5],6.44 µM (active)
same,IC50,HEK293 [6],> 20 µM (inactive)
same,EC50,Streptokinase A,> 150 µM (not active)
same,IC50,HEK293 [7],> 20 µM (inactive)
same,EC50,[8],> 20 µM (inactive)
same,IC50,HEK293 [9],3.8 µM (active)
same,IC50,HEK293 [10],> 20 µM (inactive)
same,EC50,Streptococcus,105 µM (active)
same,IC50,[11],5.24 µM (active)
same,IC50,Tumor necrosis factor,> 20 µM (inactive)
same,CC50,[12],29.7 µM (active)
same,IC50,HEK293 [13],> 20 µM (inactive)
same,IC50,[14],> 20 µM (inactive)
same,CC50,[15],> 20 µM (active)
same,CC50,[16],10.9 µM (active)
same,IC50,[17],> 20 µM (inactive)
same,IC50,cells,0.21 µM (active)
same,IC50,HEK293 [18],> 20 µM (inactive)
Cc1cc(NC(=O)C(C)C)ncc1NC(=O)Cc1ccccc1,IC50,Coagulation factor XII,> 50 µM (inactive)
CCSc1nnc2nc3c(c(O)n12)C1(CCCCC1)Cc1ccccc1-3,IC50,[19],8.6 µM (active)
COc1ccccc1CNC(=O)COc1ccc(C)cc1,EC50,T-cell,22.1 µM (active)
CNC(=S)N/N=C/c1c(C(=O)OC)cnn1-c1ccc(F)cc1F,IC50,[20],1.11 µM (active)
same,IC50,[21],2.49 µM (active)
same,IC50,[22],2.29 µM (active)
same,IC50,[23],> 32 µM (inactive)
